Results on 23 compounds are retold here after ChEMBL document CHEMBL5291721, “A preclinical secondary pharmacology resource illuminates target-adverse drug reaction associations of marketed drugs” (Nat Commun, 2023).

Some targets named below: Vasopressin V2 receptor (Homo sapiens, UniProt P30518); Cannabinoid receptor 1 (Homo sapiens, UniProt P21554); Melanocortin receptor 3 (Homo sapiens, UniProt P41968); Melanocortin receptor 4 (Homo sapiens, UniProt P32245); Motilin receptor (Homo sapiens, UniProt O43193).
For assay [1], the target named is Vascular endothelial growth factor receptor 2 (Homo sapiens, UniProt P35968). It counts as functional.
Sequence of Vascular endothelial growth factor receptor 2 (P35968 whole entry): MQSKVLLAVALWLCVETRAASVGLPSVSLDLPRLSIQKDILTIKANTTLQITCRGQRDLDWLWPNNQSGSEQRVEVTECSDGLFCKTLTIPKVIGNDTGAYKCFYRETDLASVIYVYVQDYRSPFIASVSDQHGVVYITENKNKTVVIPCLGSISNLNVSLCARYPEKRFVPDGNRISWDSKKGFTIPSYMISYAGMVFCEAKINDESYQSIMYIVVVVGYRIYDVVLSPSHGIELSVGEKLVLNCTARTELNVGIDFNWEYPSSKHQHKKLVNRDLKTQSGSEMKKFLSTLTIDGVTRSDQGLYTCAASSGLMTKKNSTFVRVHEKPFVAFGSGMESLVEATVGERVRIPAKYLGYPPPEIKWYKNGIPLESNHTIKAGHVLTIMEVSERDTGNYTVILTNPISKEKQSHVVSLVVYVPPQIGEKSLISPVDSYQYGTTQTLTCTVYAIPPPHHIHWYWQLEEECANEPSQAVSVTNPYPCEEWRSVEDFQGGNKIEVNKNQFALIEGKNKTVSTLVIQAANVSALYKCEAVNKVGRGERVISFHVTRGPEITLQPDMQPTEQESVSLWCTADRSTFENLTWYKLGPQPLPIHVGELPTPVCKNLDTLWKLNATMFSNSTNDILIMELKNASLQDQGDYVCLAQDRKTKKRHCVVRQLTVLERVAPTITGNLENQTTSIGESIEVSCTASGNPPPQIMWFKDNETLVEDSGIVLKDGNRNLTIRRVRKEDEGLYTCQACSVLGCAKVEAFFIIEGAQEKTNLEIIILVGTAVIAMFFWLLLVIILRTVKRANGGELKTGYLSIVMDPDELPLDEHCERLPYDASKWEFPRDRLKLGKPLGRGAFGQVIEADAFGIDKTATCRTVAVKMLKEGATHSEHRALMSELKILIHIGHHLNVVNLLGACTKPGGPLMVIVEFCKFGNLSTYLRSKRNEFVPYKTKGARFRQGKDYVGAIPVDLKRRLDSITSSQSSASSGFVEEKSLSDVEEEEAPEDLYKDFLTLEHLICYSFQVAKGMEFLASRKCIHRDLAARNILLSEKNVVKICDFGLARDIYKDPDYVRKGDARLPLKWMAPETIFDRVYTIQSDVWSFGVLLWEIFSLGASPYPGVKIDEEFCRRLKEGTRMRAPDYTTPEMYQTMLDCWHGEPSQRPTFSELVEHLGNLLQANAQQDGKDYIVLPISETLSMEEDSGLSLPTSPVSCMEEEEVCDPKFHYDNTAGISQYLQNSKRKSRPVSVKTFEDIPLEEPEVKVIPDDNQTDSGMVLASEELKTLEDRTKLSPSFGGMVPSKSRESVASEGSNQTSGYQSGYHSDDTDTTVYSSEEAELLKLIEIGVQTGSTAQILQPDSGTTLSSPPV
A further assay has as its target T1, Adenosine receptor A1 (Homo sapiens, UniProt P30542).
T1 sequence (P30542 whole entry): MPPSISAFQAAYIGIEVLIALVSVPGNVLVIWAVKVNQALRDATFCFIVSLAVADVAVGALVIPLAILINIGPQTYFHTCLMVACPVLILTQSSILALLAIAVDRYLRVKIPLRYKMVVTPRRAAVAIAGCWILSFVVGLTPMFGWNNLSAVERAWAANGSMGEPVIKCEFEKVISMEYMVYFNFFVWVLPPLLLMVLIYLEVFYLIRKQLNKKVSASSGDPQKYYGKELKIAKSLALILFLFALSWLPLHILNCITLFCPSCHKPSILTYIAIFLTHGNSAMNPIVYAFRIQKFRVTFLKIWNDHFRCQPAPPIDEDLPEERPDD

The target in assay [2] is T2, Type-1 angiotensin II receptor (Homo sapiens, UniProt P30556).
T2 sequence (P30556 whole entry): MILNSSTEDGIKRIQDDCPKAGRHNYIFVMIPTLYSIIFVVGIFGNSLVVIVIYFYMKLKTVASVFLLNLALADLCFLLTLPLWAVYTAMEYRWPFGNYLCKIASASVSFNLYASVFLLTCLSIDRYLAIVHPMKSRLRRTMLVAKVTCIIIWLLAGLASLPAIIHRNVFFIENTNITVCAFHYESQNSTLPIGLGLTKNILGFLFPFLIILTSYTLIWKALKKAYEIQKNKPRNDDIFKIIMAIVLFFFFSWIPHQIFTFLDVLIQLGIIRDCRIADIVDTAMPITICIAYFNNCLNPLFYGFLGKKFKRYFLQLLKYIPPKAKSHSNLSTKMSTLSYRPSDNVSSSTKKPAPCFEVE

The target of another assay is D(1A) dopamine receptor (Homo sapiens, UniProt P21728). Format: functional, cell-based.
Sequence of D(1A) dopamine receptor (P21728 whole entry): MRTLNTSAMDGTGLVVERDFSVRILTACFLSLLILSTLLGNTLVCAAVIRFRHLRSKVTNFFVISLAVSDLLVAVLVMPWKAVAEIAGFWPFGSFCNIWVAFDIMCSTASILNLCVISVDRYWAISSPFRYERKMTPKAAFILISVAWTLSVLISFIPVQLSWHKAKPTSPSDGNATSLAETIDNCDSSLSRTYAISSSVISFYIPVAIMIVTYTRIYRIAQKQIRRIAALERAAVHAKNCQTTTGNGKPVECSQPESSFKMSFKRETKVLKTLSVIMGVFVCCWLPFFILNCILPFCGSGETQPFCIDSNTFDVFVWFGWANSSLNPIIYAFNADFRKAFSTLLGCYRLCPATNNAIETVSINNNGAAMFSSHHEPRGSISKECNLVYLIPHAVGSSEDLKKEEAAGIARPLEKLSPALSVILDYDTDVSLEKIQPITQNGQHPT
Assay [3] has as its target Glutamate receptor ionotropic, NMDA 1 (Rattus norvegicus, UniProt P35439).
For a further assay, the target named is Histamine H2 receptor (Homo sapiens, UniProt P25021). Format: functional, cell-based.
Sequence of Histamine H2 receptor (P25021 whole entry): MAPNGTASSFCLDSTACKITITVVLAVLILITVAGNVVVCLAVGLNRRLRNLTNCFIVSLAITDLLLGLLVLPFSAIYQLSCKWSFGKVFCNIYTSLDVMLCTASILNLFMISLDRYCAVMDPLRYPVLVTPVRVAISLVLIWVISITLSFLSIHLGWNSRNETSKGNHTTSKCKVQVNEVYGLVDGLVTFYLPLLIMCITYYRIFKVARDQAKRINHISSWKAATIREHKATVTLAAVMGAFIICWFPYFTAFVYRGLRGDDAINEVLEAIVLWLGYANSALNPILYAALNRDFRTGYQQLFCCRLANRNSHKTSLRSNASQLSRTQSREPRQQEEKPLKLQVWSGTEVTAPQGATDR
The target in assay [4] is T3, 5-hydroxytryptamine receptor 3A (Homo sapiens, UniProt P46098).
T3 sequence (P46098 whole entry): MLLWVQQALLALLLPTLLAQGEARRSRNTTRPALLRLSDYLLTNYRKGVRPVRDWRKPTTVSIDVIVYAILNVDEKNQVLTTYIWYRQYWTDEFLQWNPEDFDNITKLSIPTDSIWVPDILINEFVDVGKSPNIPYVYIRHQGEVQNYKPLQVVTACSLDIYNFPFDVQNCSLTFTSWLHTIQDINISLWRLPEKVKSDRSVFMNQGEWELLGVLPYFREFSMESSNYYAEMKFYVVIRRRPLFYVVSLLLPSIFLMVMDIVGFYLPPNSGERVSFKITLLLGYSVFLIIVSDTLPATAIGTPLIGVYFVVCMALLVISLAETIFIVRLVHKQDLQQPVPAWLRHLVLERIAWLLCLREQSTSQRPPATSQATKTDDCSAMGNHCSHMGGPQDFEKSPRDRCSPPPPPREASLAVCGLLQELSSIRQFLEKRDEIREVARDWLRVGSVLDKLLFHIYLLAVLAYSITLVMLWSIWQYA
It counts as functional.

For assay [5], the target named is Delta-type opioid receptor (Homo sapiens, UniProt P41143).
Sequence of Delta-type opioid receptor (P41143 whole entry): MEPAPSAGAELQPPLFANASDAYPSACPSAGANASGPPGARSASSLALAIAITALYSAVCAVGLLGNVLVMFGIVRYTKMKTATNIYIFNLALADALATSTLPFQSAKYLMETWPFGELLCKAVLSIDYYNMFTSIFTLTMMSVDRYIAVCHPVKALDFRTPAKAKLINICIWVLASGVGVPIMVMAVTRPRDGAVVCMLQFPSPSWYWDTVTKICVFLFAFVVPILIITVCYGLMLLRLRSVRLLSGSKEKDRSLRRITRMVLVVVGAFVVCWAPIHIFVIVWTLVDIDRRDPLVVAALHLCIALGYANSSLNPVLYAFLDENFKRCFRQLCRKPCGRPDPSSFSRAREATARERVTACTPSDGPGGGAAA
Assay [6] addresses Kappa-type opioid receptor (Homo sapiens, UniProt P41145).
The target in assay [7] is T4, Prostaglandin G/H synthase 1 (Rattus norvegicus, UniProt Q63921).
T4 sequence (Q63921 whole entry): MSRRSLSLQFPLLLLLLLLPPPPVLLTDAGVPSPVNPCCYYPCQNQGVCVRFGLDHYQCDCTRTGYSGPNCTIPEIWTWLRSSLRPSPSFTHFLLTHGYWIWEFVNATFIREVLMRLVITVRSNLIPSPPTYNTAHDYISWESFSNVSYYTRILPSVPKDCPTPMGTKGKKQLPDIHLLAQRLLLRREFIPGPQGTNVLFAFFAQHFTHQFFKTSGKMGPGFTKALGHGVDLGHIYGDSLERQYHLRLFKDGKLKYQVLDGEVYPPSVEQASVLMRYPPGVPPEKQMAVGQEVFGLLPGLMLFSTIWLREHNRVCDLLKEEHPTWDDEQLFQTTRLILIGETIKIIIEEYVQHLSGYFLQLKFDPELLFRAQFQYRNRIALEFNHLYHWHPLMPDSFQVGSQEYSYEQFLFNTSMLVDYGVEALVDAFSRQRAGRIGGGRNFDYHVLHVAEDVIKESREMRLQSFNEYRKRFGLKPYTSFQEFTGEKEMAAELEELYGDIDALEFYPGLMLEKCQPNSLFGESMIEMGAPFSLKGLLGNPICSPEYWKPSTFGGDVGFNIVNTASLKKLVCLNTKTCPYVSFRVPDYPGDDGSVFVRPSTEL
Format: functional.

Another assay deals with T5, Endothelin-1 receptor (Homo sapiens, UniProt P25101).
T5 sequence (P25101 whole entry): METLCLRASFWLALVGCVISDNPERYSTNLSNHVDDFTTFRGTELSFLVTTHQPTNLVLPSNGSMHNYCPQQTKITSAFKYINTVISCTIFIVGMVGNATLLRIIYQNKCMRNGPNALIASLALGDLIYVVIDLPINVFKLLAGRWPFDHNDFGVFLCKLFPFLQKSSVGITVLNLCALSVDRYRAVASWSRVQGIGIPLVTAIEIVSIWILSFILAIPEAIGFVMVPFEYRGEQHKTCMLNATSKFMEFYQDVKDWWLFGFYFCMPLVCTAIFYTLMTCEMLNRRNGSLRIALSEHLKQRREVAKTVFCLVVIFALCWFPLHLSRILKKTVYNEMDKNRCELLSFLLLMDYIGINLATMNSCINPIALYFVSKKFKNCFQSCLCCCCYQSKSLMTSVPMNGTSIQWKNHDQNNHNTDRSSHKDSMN

A word on the AC50: it is the midpoint of the concentration-response curve, whichever way the signal moves. The low end stands for activity at low concentration, the high end for activity only at high concentration.

Bounds are passed on as bounds.
Also: assay procedure not described here.

Sequence of Motilin receptor (O43193 whole entry): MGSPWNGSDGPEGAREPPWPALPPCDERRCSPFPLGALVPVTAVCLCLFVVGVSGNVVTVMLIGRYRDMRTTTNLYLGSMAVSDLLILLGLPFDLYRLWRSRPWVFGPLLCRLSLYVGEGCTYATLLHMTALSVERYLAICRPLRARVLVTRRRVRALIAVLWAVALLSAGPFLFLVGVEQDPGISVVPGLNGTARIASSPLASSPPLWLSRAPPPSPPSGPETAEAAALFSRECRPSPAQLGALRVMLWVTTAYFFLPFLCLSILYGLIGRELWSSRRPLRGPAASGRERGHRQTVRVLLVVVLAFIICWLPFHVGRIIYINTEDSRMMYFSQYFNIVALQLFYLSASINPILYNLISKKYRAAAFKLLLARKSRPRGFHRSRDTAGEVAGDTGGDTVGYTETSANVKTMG
Sequence of Vasopressin V2 receptor (P30518 whole entry): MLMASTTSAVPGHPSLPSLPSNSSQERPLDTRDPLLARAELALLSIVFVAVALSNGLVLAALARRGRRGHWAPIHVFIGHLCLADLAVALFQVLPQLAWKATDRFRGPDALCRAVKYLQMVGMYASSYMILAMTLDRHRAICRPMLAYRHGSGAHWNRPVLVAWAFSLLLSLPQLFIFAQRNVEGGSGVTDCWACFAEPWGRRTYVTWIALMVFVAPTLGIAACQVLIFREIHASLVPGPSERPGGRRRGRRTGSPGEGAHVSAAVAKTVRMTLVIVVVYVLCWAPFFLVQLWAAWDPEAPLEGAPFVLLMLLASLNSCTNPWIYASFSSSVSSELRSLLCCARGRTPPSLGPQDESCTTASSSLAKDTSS
Sequence of Melanocortin receptor 3 (P41968 whole entry): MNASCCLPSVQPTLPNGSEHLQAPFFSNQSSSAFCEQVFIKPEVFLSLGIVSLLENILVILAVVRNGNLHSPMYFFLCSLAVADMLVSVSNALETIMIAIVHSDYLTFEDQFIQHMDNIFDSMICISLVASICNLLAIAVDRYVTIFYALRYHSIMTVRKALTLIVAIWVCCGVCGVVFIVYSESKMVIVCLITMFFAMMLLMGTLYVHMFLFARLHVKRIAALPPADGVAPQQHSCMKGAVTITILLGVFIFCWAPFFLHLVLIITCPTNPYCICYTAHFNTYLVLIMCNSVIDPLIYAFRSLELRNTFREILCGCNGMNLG
Sequence of Kappa-type opioid receptor (P41145 whole entry): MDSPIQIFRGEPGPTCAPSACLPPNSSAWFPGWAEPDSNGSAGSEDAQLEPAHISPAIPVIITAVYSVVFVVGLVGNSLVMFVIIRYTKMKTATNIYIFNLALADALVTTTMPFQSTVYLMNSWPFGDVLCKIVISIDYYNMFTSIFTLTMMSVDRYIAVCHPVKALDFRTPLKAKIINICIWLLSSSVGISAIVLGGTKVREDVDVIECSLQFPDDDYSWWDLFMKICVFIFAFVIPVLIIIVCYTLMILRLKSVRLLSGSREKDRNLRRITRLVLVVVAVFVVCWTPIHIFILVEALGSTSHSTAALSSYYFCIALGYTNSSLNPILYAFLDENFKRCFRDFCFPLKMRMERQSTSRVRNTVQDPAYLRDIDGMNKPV
Sequence of Cannabinoid receptor 1 (P21554 whole entry): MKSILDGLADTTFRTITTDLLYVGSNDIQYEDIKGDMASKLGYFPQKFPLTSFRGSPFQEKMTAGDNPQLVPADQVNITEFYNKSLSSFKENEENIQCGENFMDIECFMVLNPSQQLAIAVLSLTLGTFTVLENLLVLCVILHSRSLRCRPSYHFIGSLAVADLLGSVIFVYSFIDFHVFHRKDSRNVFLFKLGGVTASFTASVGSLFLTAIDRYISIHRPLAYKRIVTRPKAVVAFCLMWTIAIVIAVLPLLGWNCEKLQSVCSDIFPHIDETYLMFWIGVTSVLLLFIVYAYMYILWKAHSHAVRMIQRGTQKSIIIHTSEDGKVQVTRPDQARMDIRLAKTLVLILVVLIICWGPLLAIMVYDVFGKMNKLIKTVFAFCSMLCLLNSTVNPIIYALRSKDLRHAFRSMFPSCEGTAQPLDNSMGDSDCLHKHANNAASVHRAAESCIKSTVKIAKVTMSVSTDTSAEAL
Sequence of Melanocortin receptor 4 (P32245 whole entry): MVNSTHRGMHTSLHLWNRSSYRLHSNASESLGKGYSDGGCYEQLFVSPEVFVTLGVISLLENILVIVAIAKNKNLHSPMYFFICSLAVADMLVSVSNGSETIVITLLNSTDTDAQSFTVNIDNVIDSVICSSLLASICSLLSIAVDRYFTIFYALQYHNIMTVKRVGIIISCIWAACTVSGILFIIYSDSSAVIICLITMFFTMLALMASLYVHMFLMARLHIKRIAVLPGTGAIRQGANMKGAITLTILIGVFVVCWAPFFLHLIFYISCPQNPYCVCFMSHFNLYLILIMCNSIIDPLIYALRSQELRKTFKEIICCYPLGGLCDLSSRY

As to `CC(C1=C(CCN(C)C)Cc2ccccc21)c1ccccn1` (stereo not given), in [1], the AC50 was above 30 µM.

For `CC(=O)OC(C)OC(=O)C(C)c1ccc(-c2ccccc2)c(F)c1` (stereo not given), in assay [1], the AC50 is above 30 µM.

Consider `C[C@]12CC[C@H](O)CC1=CC[C@@H]1[C@@H]2CC[C@]2(C)C(c3cccnc3)=CC[C@@H]12` [ABIRATERONE], for which the AC50 at Adenosine receptor A1 is above 30 µM; in assay [2] it was above 30 µM; on Vasopressin V2 receptor, above 30 µM; on Cannabinoid receptor 1, above 10 µM; at D(1A) dopamine receptor, above 10 µM; in assay [3], above 10 µM. The AC50 on Histamine H2 receptor was above 10 µM; in assay [4] it was above 30 µM; at Melanocortin receptor 3, above 30 µM; at Melanocortin receptor 4 it was above 30 µM; at Motilin receptor, above 10 µM; in assay [5] it was above 30 µM. For the same compound, the AC50 is above 10 µM in assay [6] and above 30 µM in assay [7].

For `C[C@H](N)C(=O)O` [ALANINE], the AC50 in [1] is above 30 µM.

Turning to `O=C1c2c(O)cccc2Cc2cccc(O)c21` [ANTHRALIN], half-maximal activity in assay [1] (AC50) was put at 6.14 µM.

In turn, `COC(=O)C1=C(C)NC(C)=C(C(=O)O[C@H]2CCN(Cc3ccccc3)C2)[C@H]1c1cccc([N+](=O)[O-])c1` [BARNIDIPINE] showed an AC50 in assay [1] above 30 µM.

For `CCCCOc1ccc(CC(=O)NO)cc1` [BUFEXAMAC], in assay [1], the AC50 is above 30 µM.

As to `Cc1nnc(SCC2=C(C(=O)O)N3C(=O)[C@@H](NC(=O)Cn4cc(Cl)c(=O)c(Cl)c4)[C@H]3SC2)s1` [CEFAZEDONE], in [1], the AC50 stood at 10.1 µM.

For the compound `Nc1ncnc(Nc2ccc(Cl)cc2)n1` [CHLORAZANIL], half-maximal activity in assay [1] (AC50) was put at 15 µM.

For `NS(=O)(=O)c1cc(C2(O)NC(=O)c3ccccc32)ccc1Cl` (stereo not given) [CHLORTHALIDONE], the AC50 (at Adenosine receptor A1; in [2]; at Vasopressin V2 receptor; at Cannabinoid receptor 1; on D(1A) dopamine receptor; in [3]) was above 10 µM throughout. In addition, the AC50 at Histamine H2 receptor was above 10 µM; in assay [4], above 30 µM; on Melanocortin receptor 3, above 10 µM; at Melanocortin receptor 4 it was above 10 µM; on Motilin receptor, above 10 µM; in [6], above 10 µM. Also, in assay [7], the AC50 was above 10 µM.

Take `CCC[C@@H]1C[C@@H](C(=O)N[C@@H]([C@H]2O[C@H](SC)[C@H](OP(=O)(O)O)[C@@H](O)[C@H]2O)[C@H](C)Cl)N(C)C1` [CLINDAMYCIN PHOSPHATE]: the AC50 in [1] is above 30 µM.

For the compound `O=c1oc2ccccc2c(O)c1Cc1c(O)c2ccccc2oc1=O` [DICUMAROL], the AC50 (at Adenosine receptor A1; in [2]; at Vasopressin V2 receptor; at Cannabinoid receptor 1; at D(1A) dopamine receptor; in [3]) was above 10 µM each time. Further, the half-maximal activity concentration (AC50) is above 10 µM on Histamine H2 receptor; above 30 µM in assay [4]; above 10 µM on Melanocortin receptor 3; above 10 µM at Melanocortin receptor 4; above 10 µM at Motilin receptor; above 30 µM in [5]. Moreover, the figures for the AC50 in [6] and in assay [7] were above 10 µM and above 30 µM, respectively.

With `O=C(CCCN1CC=C(n2c(=O)[nH]c3ccccc32)CC1)c1ccc(F)cc1` [DROPERIDOL], the AC50 in assay [1] was above 30 µM.

`CCOC(=O)c1ccc(OC(=O)CCCCCNC(=N)N)cc1` [GABEXATE] had an AC50 in assay [1] above 30 µM.

In assay [1], `CCCCC/C=C\C/C=C\C/C=C\CCCCC(=O)O` [GAMOLENIC ACID] returned an AC50 above 30 µM.

Turning to `NC(=O)NCCC[C@H](N)C(=O)O` [L-CITRULLINE], the AC50 in [1] is above 30 µM.

Compound `CC(=O)O[C@H]1C[C@H](O[C@H]2[C@@H](O)C[C@H](O[C@H]3[C@@H](O)C[C@H](O[C@H]4CC[C@@]5(C)[C@H](CC[C@@H]6[C@@H]5C[C@@H](O)[C@]5(C)[C@@H](C7=CC(=O)OC7)CC[C@]65O)C4)O[C@@H]3C)O[C@@H]2C)O[C@H](C)[C@H]1O[C@@H]1O[C@H](CO)[C@@H](O)[C@H](O)[C@H]1O` [LANATOSIDE C] had an AC50 in assay [1] above 30 µM.

For `CO[C@H]1[C@@H](O)C[C@H](O[C@H]2[C@@H](O)C[C@H](O[C@H]3[C@@H](O)C[C@H](O[C@H]4CC[C@@]5(C)[C@H](CC[C@@H]6[C@@H]5C[C@@H](O)[C@]5(C)[C@@H](C7=CC(=O)OC7)CC[C@]65O)C4)O[C@@H]3C)O[C@@H]2C)O[C@@H]1C` [METILDIGOXIN], the AC50 in assay [1] is above 30 µM.

In [1], `c1ccc2c(CC3=NCCN3)cccc2c1` [NAPHAZOLINE] showed an AC50 above 30 µM.

For `CNCCCC1c2ccccc2C=Cc2ccccc21` [PROTRIPTYLINE], the AC50 (on Adenosine receptor A1; in assay [2]; on Vasopressin V2 receptor; on Cannabinoid receptor 1; at D(1A) dopamine receptor; in assay [3]) was above 10 µM throughout. Further, the AC50 on Histamine H2 receptor was above 10 µM; in assay [4], above 30 µM; on Melanocortin receptor 3 it was above 10 µM; at Melanocortin receptor 4, above 10 µM; on Motilin receptor, above 10 µM; in assay [5], above 30 µM. In assay [7], this compound showed an AC50 above 10 µM.

Take `CCCCCCCCCCCCCCCCCC(=O)NCCCC[C@H](NC(=O)CC[C@@H](NC(=O)[C@H](C)NC(=O)[C@@H](C)O[C@H]1[C@H](O)[C@@H](CO)OC(O)[C@@H]1NC(C)=O)C(N)=O)C(=O)O` (stereo not given in full) [ROMURTIDE]: the AC50 in assay [1] is above 30 µM.

On to `CC(C)=CCOc1ccc(/C=C/C(=O)c2ccc(OCC=C(C)C)cc2OCC(=O)O)cc1` [SOFALCONE], for which the AC50 at Adenosine receptor A1 was above 30 µM; in assay [2] it was 7.5 µM; on Vasopressin V2 receptor, above 30 µM; on D(1A) dopamine receptor, above 30 µM; at Endothelin-1 receptor, above 30 µM; in assay [3], above 30 µM. In addition, the AC50 was above 30 µM on Histamine H2 receptor; above 30 µM in assay [4]; above 30 µM on Melanocortin receptor 3; above 30 µM on Motilin receptor; 26 µM in [5]; 12 µM in assay [6]. The AC50 in assay [7] was above 30 µM.

Compound `C[C@@H]1C[C@H]2[C@@H]3CCC4=CC(=O)C=C[C@]4(C)C3=CC[C@]2(C)[C@H]1C(=O)CN1CCN(c2cc(N3CCCC3)nc(N3CCCC3)n2)CC1` [TIRILAZAD] showed an AC50 in assay [1] above 30 µM.
